{"source": "patent US7960377B2", "about": "(priority 2008, dated 2011)", "test_in_all_cases": "cell-based", "key": {"human CB2 receptor": {"biological_target": "human CB2 receptor (Homo sapiens, UniProt P34972)", "sequence (P34972 whole entry)": "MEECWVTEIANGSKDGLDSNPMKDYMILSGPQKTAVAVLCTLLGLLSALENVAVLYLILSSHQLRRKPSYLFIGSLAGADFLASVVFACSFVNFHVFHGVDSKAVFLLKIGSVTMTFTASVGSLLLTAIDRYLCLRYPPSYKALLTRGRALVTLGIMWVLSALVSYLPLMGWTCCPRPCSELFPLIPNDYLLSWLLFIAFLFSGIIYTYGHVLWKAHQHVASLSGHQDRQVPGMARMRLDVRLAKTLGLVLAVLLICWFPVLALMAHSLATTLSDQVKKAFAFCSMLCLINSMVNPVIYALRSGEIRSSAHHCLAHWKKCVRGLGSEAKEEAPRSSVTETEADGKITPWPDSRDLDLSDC", "assay_type": "cell-based"}, "rat CB2 receptor": {"biological_target": "T1, rat CB2 receptor (Rattus norvegicus, UniProt Q9QZN9)", "T1 sequence (Q9QZN9 1-360)": "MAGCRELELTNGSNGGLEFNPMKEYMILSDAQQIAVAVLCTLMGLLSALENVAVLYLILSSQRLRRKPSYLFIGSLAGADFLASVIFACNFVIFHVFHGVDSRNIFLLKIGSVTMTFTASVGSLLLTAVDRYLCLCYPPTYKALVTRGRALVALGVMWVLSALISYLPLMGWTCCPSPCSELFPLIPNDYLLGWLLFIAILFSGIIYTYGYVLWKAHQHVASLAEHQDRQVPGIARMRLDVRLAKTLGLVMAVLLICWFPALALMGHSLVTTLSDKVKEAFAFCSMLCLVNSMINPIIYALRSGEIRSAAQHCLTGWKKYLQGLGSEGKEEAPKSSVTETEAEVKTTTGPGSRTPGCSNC", "assay_type": "cell-based"}, "human CB1 receptor": {"biological_target": "human CB1 receptor (Homo sapiens, UniProt P21554)", "sequence (P21554 whole entry)": "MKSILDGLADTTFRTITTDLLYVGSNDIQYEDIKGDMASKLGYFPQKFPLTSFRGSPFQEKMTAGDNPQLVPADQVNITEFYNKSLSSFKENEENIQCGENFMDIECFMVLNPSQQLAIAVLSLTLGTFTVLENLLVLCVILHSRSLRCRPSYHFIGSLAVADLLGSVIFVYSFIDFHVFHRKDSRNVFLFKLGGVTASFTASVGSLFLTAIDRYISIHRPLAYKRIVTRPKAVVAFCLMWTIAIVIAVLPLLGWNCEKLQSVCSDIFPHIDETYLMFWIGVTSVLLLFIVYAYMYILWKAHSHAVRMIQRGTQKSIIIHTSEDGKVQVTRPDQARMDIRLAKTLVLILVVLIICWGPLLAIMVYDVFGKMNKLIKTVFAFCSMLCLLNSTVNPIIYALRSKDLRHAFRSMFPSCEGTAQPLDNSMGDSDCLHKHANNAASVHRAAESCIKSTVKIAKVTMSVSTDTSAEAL"}}}
{"compound": "CC(C)(C)NC(=O)c1cnc2c(c1)N(Cc1ccc(F)cc1)C(=O)CO2", "note": "[Example 218, N-tert-butyl-1-(4-fluorobenzyl)-2-oxo-2,3-dihydro-1H-pyrido[2,3-b][1,4]oxazine-7-carboxamide]", "values": [{"measurement": "EC50", "setting": "human CB2 receptor", "value": "≤ 0.03", "unit": "µM"}, {"measurement": "EC50", "setting": "rat CB2 receptor", "value": "≤ 0.03", "unit": "µM"}, {"measurement": "EC50", "setting": "human CB1 receptor", "value": "> 30", "unit": "µM"}]}
